Measured values reported in DBAASP.
Converted amounts (≈) assume the structure as drawn. “And” between values parts separate entries of the source, which are not always exact repeats. Equal values may be shown once. Each block holds one compound with its values, some of them ahead of it.

What was measured:
Experiment in all cases: ≥ marks a high value that may be exact or a test limit, other limits are often not marked, values filed in µg/mL are converted to µM
[1] = system: Bacillus subtilis ATCC 9372
[2] = system: Bacillus anthracis Sterne 34F2
[3] = system: Burkholderia thailandensis
[4] = system: Escherichia coli ATCC 25922
Escherichia coli JW3596 = system: Escherichia coli JW3596
Escherichia coli F2513 = system: Escherichia coli F2513
Escherichia coli BW25113 = system: Escherichia coli BW25113
[5] = system: Micrococcus luteus ATCC 9341
Escherichia coli JW3605 = system: Escherichia coli JW3605
Escherichia coli F470 = system: Escherichia coli F470
[6] = system: Staphylococcus aureus 1303
[7] = system: Enterococcus faecalis 981
Staphylococcus aureus = system: Staphylococcus aureus
Proteus vulgaris = system: Proteus vulgaris
Klebsiella pneumoniae = system: Klebsiella pneumoniae
[8] = system: Enterococcus faecium 1299
[9] = system: Cutibacterium acnes ATCC 11827
[10] = system: Klebsiella pneumoniae 1400
[11] = system: Staphylococcus haemolyticus
[12] = system: Staphylococcus aureus 1307
Proteus mirabilis = system: Proteus mirabilis
Arcyria cinerea = system: Arcyria cinerea
Cryptococcus neoformans = system: Cryptococcus neoformans
Escherichia coli 1335 = system: Escherichia coli 1335
[13] = system: Staphylococcus aureus 1350
Serratia marcescens = system: Serratia marcescens
[14] = system: Pseudomonas aeruginosa 1411
[15] = system: Salmonella enterica subsp. enterica serovar Typhi
[16] = system: Staphylococcus epidermidis
[17] = system: Pseudomonas aeruginosa ATCC 27853
Aeromonas sobria = system: Aeromonas sobria
Escherichia coli 1342 = system: Escherichia coli 1342
Candida glabrata 0902 = system: Candida glabrata 0902
[18] = system: Stenotrophomonas maltophilia
Escherichia coli 1334 = system: Escherichia coli 1334
[19] = system: Staphylococcus aureus ATCC 2592
Escherichia coli = system: Escherichia coli
[20] = system: Pseudomonas aeruginosa 1412
[21] = system: Candida albicans ATCC 2002
[22] = system: Pseudomonas aeruginosa 1413
Acinetobacter baumannii = system: Acinetobacter baumannii
Escherichia coli 1375 = system: Escherichia coli 1375

SMILES: CC[C@H](C)[C@@H]1NC(=O)CNC(=O)[C@H](CO)NC(=O)[C@H](CC(C)C)NC(=O)[C@H](CC(C)C)NC(=O)[C@H](CC(=O)O)NC(=O)[C@@H](NC(=O)[C@@H](NC(=O)[C@H](C)N)[C@@H](C)O)CSSC[C@@H]2NC(=O)[C@H](Cc3ccc(O)cc3)NC(=O)CNC(=O)CNC(=O)[C@H](CCCN=C(N)N)NC(=O)[C@H](CC(N)=O)NC(=O)CNC(=O)[C@H](CCCN=C(N)N)NC(=O)[C@H](Cc3ccccc3)NC(=O)[C@H](C(C)C)NC(=O)[C@@H]3CSSC[C@@H](C(=O)N[C@@H](CCCN=C(N)N)C(=O)N[C@@H](CC(N)=O)C(=O)O)NC(=O)[C@H](C(C)C)NC(=O)[C@H](CSSC[C@H](NC(=O)[C@H](C)NC(=O)[C@H](CO)NC(=O)[C@H](Cc4cnc[nH]4)NC(=O)[C@H](CCC(N)=O)NC(=O)[C@H](C(C)C)NC(=O)CNC1=O)C(=O)N[C@@H](C)C(=O)N[C@@H](CC(C)C)C(=O)N[C@@H](Cc1cnc[nH]1)C(=O)N3)NC(=O)[C@H]([C@@H](C)CC)NC(=O)CNC(=O)[C@H](CCCCN)NC(=O)CNC(=O)[C@H]([C@@H](C)O)NC2=O [ATCDLLSGIGVQHSACALHCVFRGNRGGYCTGKGICVCRN]
MIC [1]: 7.9 µM (≈ 32.7 µg/mL) | MIC [2]: ≥ 79 µM | MIC [3]: ≥ 50 µM

MIC [4]: 18.3 µM (≈ 32 µg/mL) | MIC (Escherichia coli JW3596): 2.28 µM (≈ 4 µg/mL) | MIC (Escherichia coli F2513): 6.46 µM (≈ 11.3 µg/mL) | MIC (Escherichia coli BW25113): 18.3 µM (≈ 32 µg/mL) | MIC [5]: 0.8 µM (≈ 1.4 µg/mL) | MIC (Escherichia coli JW3605): 18.3 µM (≈ 32 µg/mL) | MIC (Escherichia coli F470): 18.3 µM (≈ 32 µg/mL)
SMILES: CC[C@H](C)[C@H](N)C(=O)N[C@@H](CC(C)C)C(=O)N1CCC[C@H]1C(=O)N[C@@H](Cc1c[nH]c2ccccc12)C(=O)N[C@@H](CCCCN)C(=O)N[C@@H](Cc1c[nH]c2ccccc12)C(=O)N1CCC[C@H]1C(=O)N[C@@H](Cc1c[nH]c2ccccc12)C(=O)N[C@@H](Cc1c[nH]c2ccccc12)C(=O)N1CCC[C@H]1C(=O)N[C@@H](Cc1c[nH]c2ccccc12)C(=O)N[C@@H](CCCN=C(N)N)C(N)=O [ILPWKWPWWPWR]

MIC [6]: 2.95 µM and 1.48 µM | MIC [7]: 2.95 µM and 1.48 µM | MIC (Staphylococcus aureus): 0.74 µM and > 0.37 µM | MIC (Proteus vulgaris): 23.6 µM (≈ 75 µg/mL) | MIC (Klebsiella pneumoniae): 2.95 µM and 5.9 µM | MIC [4]: 1.48 µM (≈ 4.7 µg/mL) | MIC [8]: 1.48 µM (≈ 4.7 µg/mL) | MIC [9]: 0.74 µM (≈ 2.35 µg/mL) | MIC [10]: 4.17 µM (≈ 13.2 µg/mL) | MIC [12]: 2.95 µM (≈ 9.37 µg/mL) | MIC (Proteus mirabilis): 1.48 µM (≈ 4.7 µg/mL) | MIC (Arcyria cinerea): 0.37 µM and 0.74 µM | MIC (Cryptococcus neoformans): 23.6 µM (≈ 75 µg/mL) | MIC (Escherichia coli 1335): 1.48 µM (≈ 4.7 µg/mL) | MIC [13]: 1.48 µM (≈ 4.7 µg/mL) | MIC (Serratia marcescens): 31.5 µM and 23.6 µM | MIC [14]: 1.48 µM and 2.95 µM | MIC [15]: 5.9 µM (≈ 18.7 µg/mL) | MIC [16]: 2.95 µM (≈ 9.37 µg/mL) | MIC [17]: 5.9 µM and > 2.95 µM | MIC (Aeromonas sobria): 1.48 µM (≈ 4.7 µg/mL) | MIC (Escherichia coli 1342): 0.74 µM and 1.48 µM | MIC (Candida glabrata 0902): 5.9 µM (≈ 18.7 µg/mL) | MIC [18]: 2.95 µM (≈ 9.37 µg/mL) | MIC (Escherichia coli 1334): 2.95 µM (≈ 9.37 µg/mL) | MIC [19]: 0.18 µM (≈ 0.572 µg/mL) | MIC (Escherichia coli): 1.48 µM (≈ 4.7 µg/mL) | MIC [20]: 2.95 µM and 5.9 µM | MIC [21]: 0.18 µM and 0.37 µM | MIC [22]: 2.95 µM (≈ 9.37 µg/mL) | MIC (Acinetobacter baumannii): 1.48 µM and 1.05 µM | MIC (Escherichia coli 1375): 2.95 µM (≈ 9.37 µg/mL)
SMILES: CC[C@H](C)[C@H](NC(=O)[C@H](C)NC(=O)[C@H](CCCN=C(N)N)NC(=O)[C@H](Cc1ccc(O)cc1)NC(=O)[C@H](CC(C)C)NC(=O)[C@H](CC(N)=O)NC(=O)[C@H](Cc1ccc(O)cc1)NC(=O)CNC(=O)[C@H](C)NC(=O)[C@@H](NC(=O)[C@@H](NC(=O)[C@@H](NC(=O)[C@H](CCCN=C(N)N)NC(=O)[C@@H](NC(=O)[C@@H](NC(=O)[C@@H](NC(=O)[C@@H]1CCCN1C(=O)[C@H](Cc1c[nH]c2ccccc12)NC(=O)[C@H](Cc1ccccc1)NC(=O)[C@H](CCCN=C(N)N)NC(=O)[C@H](CCCCN)NC(=O)[C@@H](NC(=O)[C@@H](N)CCCN=C(N)N)[C@@H](C)CC)C(C)C)C(C)C)[C@@H](C)CC)[C@@H](C)O)C(C)C)C(C)C)C(=O)N[C@@H](CCCCN)C(=O)N[C@@H](CCCCN)C(=O)N[C@@H](CCCCN)C(=O)O [RIKRFWPVVIRTVVAGYNLYRAIKKK]
MIC [11]: 0.09 µM (≈ 0.286 µg/mL)
